pKi: −log10 of the molar value. Where a name gives a salt, the structure may show the parent alone.
Assays:
[1] = target: T1, Amine oxidase [flavin-containing] B (Homo sapiens, UniProt P27338); experiment: Compounds were tested for inhibition against human liver Monoamine oxidase B (competitive inhibition was observed)
T1 sequence (P27338 whole entry): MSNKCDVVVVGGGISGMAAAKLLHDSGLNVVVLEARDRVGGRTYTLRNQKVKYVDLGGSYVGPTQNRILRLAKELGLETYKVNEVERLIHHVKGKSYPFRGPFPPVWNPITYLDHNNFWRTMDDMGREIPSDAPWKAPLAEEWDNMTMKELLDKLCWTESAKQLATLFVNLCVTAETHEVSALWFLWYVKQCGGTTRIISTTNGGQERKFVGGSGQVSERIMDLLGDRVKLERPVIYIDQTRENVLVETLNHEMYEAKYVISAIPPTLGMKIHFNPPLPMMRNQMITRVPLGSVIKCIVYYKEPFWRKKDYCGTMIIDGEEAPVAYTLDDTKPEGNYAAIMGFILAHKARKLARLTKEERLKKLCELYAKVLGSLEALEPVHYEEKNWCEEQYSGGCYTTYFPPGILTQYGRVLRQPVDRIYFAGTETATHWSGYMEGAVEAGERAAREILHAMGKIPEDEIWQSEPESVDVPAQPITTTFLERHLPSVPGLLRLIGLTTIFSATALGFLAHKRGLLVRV

[2] = target: T2, Amine oxidase [flavin-containing] A (Homo sapiens, UniProt P21397);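 further: enzyme source: monoamine oxidase A taken from human placenta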
T2 sequence (P21397 whole entry): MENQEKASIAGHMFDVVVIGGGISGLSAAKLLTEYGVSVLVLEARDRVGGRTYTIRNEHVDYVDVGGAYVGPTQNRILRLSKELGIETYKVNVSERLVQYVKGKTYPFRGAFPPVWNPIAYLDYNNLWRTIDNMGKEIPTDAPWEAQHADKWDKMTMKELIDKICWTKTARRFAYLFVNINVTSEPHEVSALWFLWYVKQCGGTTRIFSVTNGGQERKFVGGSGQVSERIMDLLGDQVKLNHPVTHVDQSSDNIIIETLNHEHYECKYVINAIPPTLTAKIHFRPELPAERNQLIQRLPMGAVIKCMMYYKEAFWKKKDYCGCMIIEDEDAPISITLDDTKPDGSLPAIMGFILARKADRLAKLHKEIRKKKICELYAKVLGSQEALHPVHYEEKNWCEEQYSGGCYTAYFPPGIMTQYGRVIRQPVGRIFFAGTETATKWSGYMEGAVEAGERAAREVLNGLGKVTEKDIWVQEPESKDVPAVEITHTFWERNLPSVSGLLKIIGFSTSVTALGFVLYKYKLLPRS

[3] = target: T2, Amine oxidase [flavin-containing] A; experiment: Compounds were tested for inhibition against human placental Monoamine oxidase A (mixed inhibition was observed)
[4] = target: T2, Amine oxidase [flavin-containing] A; experiment: Compound was tested for inhibition against human placental Monoamine oxidase A (competitive inhibition was observed)
[5] = target: T1, Amine oxidase [flavin-containing] B; experiment: Compounds were tested for inhibition against human liver Monoamine oxidase B (mixed inhibition was observed)

| Structure (SMILES) | pKi [2] | also measured |
| --- | --- | --- |
| C[N+]1=Cc2ccccc2CC1 | 3.89 | pKi [1]: 4.12 |
| COc1ccc2c(c1)CC[N+](C)=C2 | 5.40 | pKi [1]: 4.82 |
| COc1cc2c(cc1OC)C(C)=NCC2 | 5.40 | – |
| COc1cc2c(C)nccc2cc1O [listing 1 of 2 here] | 3.82 | – |
| COc1cc2c(C)nccc2cc1O [listing 2 of 2 here] | 3.89 | – |
| COc1cc2c(cc1O)C(C)=NCC2 | 4.89 | – |
| COc1cc2c(cc1OC)CC[N+](C)=C2 | 5.22 | – |
| COc1cc2c(c(OC)c1OC)C(C)=NCC2 | 5.70 | – |
| COc1cc2ccncc2c(OC)c1OC | 4.39 | – |
| COc1cc2c(cc1OC)[C@@H](C)NCC2 | 5.22 | – |
| COc1c(OC)c(OC)c2c(C)nccc2c1OC | 4.77 | – |
| COc1cc2c(cc1OC)[C@@H](C)N(C)CC2 | 5.70 | – |
| COc1cc2c(cc1O)CCN[C@@H]2C | 4.11 | – |
| CN1CCc2cc(O)c(O)cc2C1 | 2.89 | – |
| C[C@H]1NCCc2cc(O)c(O)cc21 | 4.51 | – |
| COc1cc2c(cc1O)CCN=C2C | 4.10 | – |

| Structure (SMILES) | pKi [2] | also measured |
| --- | --- | --- |
| COc1c2c(c(OC)c(OC)c1OC)C(C)=NCC2 | 5.00 | – |
| CN1CCc2ccccc2C1 | – | pKi [1]: 6.00 |
| Cc1nccc2cc(O)c(O)cc12 | – | pKi [3]: 3.89 |
| COc1cc2c(cc1OC)CN(C)CC2 | – | pKi [1]: 4.54; pKi [4]: 4.57 |
| COc1cc2c(cc1OC)[C@H](C)NCC2 | 3.73 | – |
| CC1c2cc(O)c(O)cc2CCN1C (racemic) | 4.44 | – |
| COc1cc2c(c(OC)c1OC)C(C)NCC2 (racemic) | 3.77 | – |
| COc1cc2c(c(OC)c1OC)C(C)N(C)CC2 (racemic) | 3.80 | – |
| COc1c2c(c(OC)c(OC)c1OC)C(C)NCC2 (racemic) | 3.00 | – |
| COc1cc2c(cc1O)CCN(C)[C@H]2C (racemic) | – | pKi [1]: 2.64; pKi [3]: 4.15 |
| COc1cc2c(cc1O)C(C)NCC2 (racemic) | 4.47 | – |
| COc1cc2c(cc1OC)[C@H](C)N(C)CC2 [CARNEGINE HYDROCHLORIDE] | 3.99 | pKi [5]: 2.80 |
| COc1c2c(c(OC)c(OC)c1OC)CNCC2 [NORWEBERINE] | – | pKi [3]: 3.15; pKi [5]: 3.24 |
| COc1cc2c(cc1O)CCN[C@H]2C [SALSOLINE HYDROCHLORIDE] | 3.80 | – |
| C[C@@H]1NCCc2cc(O)c(O)cc21 [SALSOLINOL HYDROBROMIDE] | 3.55 | – |
| COc1c2c(c(OC)c(OC)c1OC)CN(C)CC2 [WEBERINE] | 3.59 | pKi [1]: 2.72 |

— ChEMBL document CHEMBL1124928, “Inhibition of monoamine oxidases A and B by simple isoquinoline alkaloids: racemic and optically active 1,2,3,4-tetrahydro-, 3,4-dihydro-, and fully aromatic isoquinolines” (J Med Chem, 1990)
